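Where inhibition never reached the appropriate level, the endpoint shown equals the highest concentration tested. Otherwise, values were interpolated linearly from a five-concentration, 48-hour dose response in 96-well plates. GI50: concentration for 50% inhibition of growth.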 The source made the active and inactive calls. No stated cut-off is given here; in the data, active = GI50 up to about 1.1 µM and inactive = higher.
Assays:
Test in all cases: inhibition of tumour cell growth, NCI panel, 48 h
[1] = test system: SR
[2] = test system: OVCAR-3
[3] = test system: U-251
[4] = test system: NCI-H460
[5] = test system: IGROV-1
[6] = test system: RPMI-8226
[7] = test system: M14
[8] = test system: OVCAR-4
[9] = test system: CCRF-CEM
[10] = test system: SF-539
[11] = test system: SK-OV-3
[12] = test system: SK-MEL-28
[13] = test system: SK-MEL-2
[14] = test system: HL-60

Measured: GI50

Cn1cnc([N+](=O)[O-])c1Sc1nccn1-c1cccc2ccccc12
inactive: [1] 15.8 µM | [2] 22.9 µM | [3] 26.2 µM | [4] 25.7 µM | [5] 26.7 µM | [6] 15.8 µM | [7] 18.8 µM | [8] 24 µM | [9] 19.5 µM | [10] 25.4 µM | [11] 31.8 µM | [12] 22.5 µM | [13] 14.1 µM

CCN(CC)C(=S)SCC(=O)Nc1nc2c(s1)CCCC2
inactive: [1] 27.6 µM | [3] 70.1 µM | [4] 68.9 µM | [5] > 100 µM | [6] > 100 µM | [7] > 100 µM | [8] > 100 µM | [14] 19.4 µM | [9] 49.4 µM | [10] > 100 µM | [11] > 100 µM | [12] > 100 µM | [13] > 100 µM

O=C1CC[C@@H](S(=O)(=O)c2ccccc2)[C@H](/C=C/c2ccccc2)O1
inactive: [1] > 100 µM | [2] > 100 µM | [3] > 100 µM | [4] > 100 µM | [5] > 100 µM | [6] > 100 µM | [7] > 100 µM | [8] > 100 µM | [14] > 100 µM | [9] > 100 µM | [10] > 100 µM | [11] > 100 µM | [12] > 100 µM

COc1ccc2occ(CCC(=O)O)c2c1
inactive: [2] > 100 µM | [3] > 100 µM | [4] > 100 µM | [5] > 100 µM | [6] > 100 µM | [7] > 100 µM | [8] > 100 µM | [14] > 100 µM | [9] > 100 µM | [10] > 100 µM | [11] > 100 µM | [12] > 100 µM

Cc1cccc(C)c1NC(=O)CCC/C(CC(=O)c1ccc(F)cc1)=N\NC(=O)C(=O)NN
inactive: [2] > 100 µM | [3] > 100 µM | [4] > 100 µM | [5] > 100 µM | [6] > 100 µM | [7] > 100 µM | [8] > 100 µM | [14] > 100 µM | [9] > 100 µM | [10] > 100 µM | [11] > 100 µM | [12] > 100 µM | [13] > 100 µM

NC(=O)c1ccccc1NC(=O)C(=O)C(C(=O)c1ccc(Cl)c(Cl)c1)C1OC(=O)c2ccccc21 (stereo not given)
inactive: [1] 95.9 µM | [2] 35.1 µM | [3] 30.8 µM | [5] 60.1 µM | [6] 69.2 µM | [7] 61.1 µM | [8] 43.3 µM | [14] > 100 µM | [9] > 100 µM

O=C(/C=C/c1ccc([N+](=O)[O-])o1)N1CCN(Cc2ccccc2)CC1
inactive: [1] 13 µM | [2] 17.7 µM | [3] 14 µM | [4] 11.2 µM | [5] 16.5 µM | [6] 10.5 µM | [7] 4.66 µM | [8] 15.6 µM | [14] 2.56 µM | [9] 2.7 µM | [10] 6.61 µM | [11] 43.5 µM | [12] 4.89 µM

Nc1nc2c(c(=O)[nH]1)NC(CO)CN2 (stereo not given)
inactive: [2] > 100 µM | [3] > 100 µM | [4] > 100 µM | [5] > 100 µM | [6] > 100 µM | [7] > 100 µM | [14] > 100 µM | [9] 29.9 µM | [10] > 100 µM | [11] > 100 µM | [12] > 100 µM

Cc1ccc(C)c(NC(=O)CCc2n[nH]c(=S)o2)c1
inactive: [1] > 100 µM | [2] > 100 µM | [3] > 100 µM | [4] > 100 µM | [5] > 100 µM | [7] > 100 µM | [8] > 100 µM | [14] > 100 µM | [9] > 100 µM | [10] > 100 µM | [12] > 100 µM

C=C(COC(C)=O)CC(/C=C(\C)CC/C=C(\C)CO)OC(C)=O (stereo not given)
inactive: [2] > 100 µM | [3] > 100 µM | [4] > 100 µM | [5] > 100 µM | [6] > 10 µM | [7] > 100 µM | [8] > 100 µM | [14] > 100 µM | [9] > 100 µM | [10] > 100 µM | [11] > 100 µM | [12] > 100 µM | [13] > 100 µM

COc1cccc(NC(=O)CC(=O)N2N=C(n3ccc4ccccc43)CC2c2ccccc2)c1 (stereo not given)
inactive: [2] > 100 µM | [3] > 100 µM | [4] > 100 µM | [5] > 100 µM | [6] > 100 µM | [7] > 100 µM | [8] > 100 µM | [14] > 100 µM | [9] > 100 µM | [10] > 100 µM | [11] > 100 µM | [12] > 100 µM | [13] > 100 µM

CCOC(=O)/C(C#N)=C(O)/C(=C\c1ccc(Br)cc1)NC(=O)c1ccccc1
inactive: [2] > 100 µM | [3] > 100 µM | [4] > 100 µM | [5] > 100 µM | [6] 22.4 µM | [7] > 100 µM | [8] > 100 µM | [14] > 100 µM | [9] > 100 µM | [10] > 100 µM | [11] > 100 µM | [12] > 100 µM

CC1Cc2c(N)nc(NN)nc2NC1=O (stereo not given)
inactive: [2] > 100 µM | [3] > 100 µM | [4] > 100 µM | [5] > 100 µM | [6] > 100 µM | [7] > 100 µM | [14] > 100 µM | [9] > 100 µM | [10] > 100 µM | [11] > 100 µM | [12] > 100 µM

CC(=O)N1CC(=O)NC1=S
inactive: [1] > 100 µM | [2] > 100 µM | [3] > 100 µM | [5] > 100 µM | [6] > 100 µM | [7] > 100 µM | [8] > 100 µM | [14] > 100 µM | [9] > 100 µM | [10] > 100 µM | [11] > 100 µM | [12] > 100 µM | [13] > 100 µM

O=C(O)C1=NN=C(C(=O)O)NN1
inactive: [2] > 100 µM | [3] > 100 µM | [4] 79.4 µM | [5] > 100 µM | [6] 43.9 µM | [7] > 100 µM | [8] > 100 µM | [14] > 100 µM | [9] > 100 µM | [10] > 100 µM | [11] 37.9 µM | [12] > 100 µM | [13] > 100 µM

CC[N+](C)(CC)CC(C)(C)C(=O)/C=C/c1ccc(/C=C/C(=O)C(C)(C)C[N+](C)(CC)CC)cc1
inactive: [2] > 100 µM | [3] > 100 µM | [4] > 100 µM | [5] > 100 µM | [6] > 100 µM | [7] > 100 µM | [8] > 100 µM | [14] > 100 µM | [9] > 100 µM | [10] > 100 µM | [11] > 100 µM | [12] > 100 µM

From ChEMBL document CHEMBL1201862, “PubChem BioAssay data set” (2004)
